What was measured:
[1] = target: T1, TDO (A172 human glioblastoma cells) (Homo sapiens, UniProt P48775); experiment: A172 Kynurenine cell based assay; conditions: 500 μM L-tryptophan, 48 hours, kynurenine by Erhlich's reagent
T1 construct: This assay utilised cancer cells which expressed either TDO or IDO; endogenous in cells; host or cells: A172 human glioblastoma cells
Experimental: (§1) Exemplary compounds of the invention were prepared, and tested to determine their effect as TDO and/or IDO inhibitors. Two different assays were employed: 1. a cell-based assay for detecting the effect of test compounds on kynurenine production in two different cancer cell types. This assay utilised cancer cells which expressed either TDO or IDO and as such was used as a means of testing compound activity at these two enzymes in a cell-based context. 2. a TDO and IDO biochemical coupled assay which utilised recombinantly produced and purified TDO and IDO enzymes in combination with the enzyme formamidase. This coupled enzyme system allowed conversion of N-formylkynurenine produced by TDO or IDO activity to kynurenine which was then quantified by fluorescence following addition of Erhlich's Reagent The protocols for these are set out below.
(§2) A172 (human glioblastoma) and SKOV3 (human ovarian adenocarcinoma) cells were seeded in a 96 well plate at 30,000 or 40,000 cells per well respectively in phenol red-free RPMI supplemented with 10% FCS, 2 mM L-glutamine and 500 μM L-tryptophan. IDO expression was induced in the SKOV3 cells by the addition of 500 ng/ml IFN-γ. Cells were incubated at 37° C. with or without the addition of test compound. After 48 hours, the cells were removed by centrifugation and Erhlich's reagent was added to the supernatant. The Erhlich's reagent was incubated for 5 minutes before the absorbance was read at 490 nm.

[2] = target: T2, IDO (SKOV3 human ovarian adenocarcinoma cells, IFN-γ induced) (Homo sapiens, UniProt P14902); experiment: SKOV3 Kynurenine cell based assay; conditions: IDO induced by 500 ng/ml IFN-γ, 500 μM L-tryptophan, 48 hours
T2 construct: IDO expression was induced in the SKOV3 cells by the addition of 500 ng/ml IFN-γ; endogenous in cells; host or cells: SKOV3 human ovarian adenocarcinoma cells, induced with IFN-γ
Experimental: as §1
as §2, with “supernatant.” for “supernatant. The Erhlich's reagent was incubated for 5 minutes before the absorbance was read at 490 nm.”

[3] = target: Recombinant human IDO (Homo sapiens, UniProt P14902); experiment: hIDO biochemical coupled assay; conditions: 45 μM L-tryptophan, coupled with kynurenine formamidase
Experimental: as §1
Recombinant human IDO or TDO was incubated in 50 mM KPO4 (pH 7.0), 0.5 mM EGTA, 0.5 mM EDTA, 0.05% Triton™ X100, 20 mM ascorbate, 10 μM methylene blue, 500 U/ml catalase, 50 μg/ml KynB (kynurenine formamidase).

T1 sequence (P48775 whole entry): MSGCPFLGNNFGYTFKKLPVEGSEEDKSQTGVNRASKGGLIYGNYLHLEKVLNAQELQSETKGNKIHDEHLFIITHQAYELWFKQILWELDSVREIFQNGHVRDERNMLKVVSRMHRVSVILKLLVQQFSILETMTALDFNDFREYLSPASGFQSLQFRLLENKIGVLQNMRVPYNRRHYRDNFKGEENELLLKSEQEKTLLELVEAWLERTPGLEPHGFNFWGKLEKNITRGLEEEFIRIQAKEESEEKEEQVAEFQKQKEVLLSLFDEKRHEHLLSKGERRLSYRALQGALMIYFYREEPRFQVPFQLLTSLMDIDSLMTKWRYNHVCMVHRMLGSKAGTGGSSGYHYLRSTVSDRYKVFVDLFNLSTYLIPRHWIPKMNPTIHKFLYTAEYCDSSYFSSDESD
T2 sequence (P14902 whole entry): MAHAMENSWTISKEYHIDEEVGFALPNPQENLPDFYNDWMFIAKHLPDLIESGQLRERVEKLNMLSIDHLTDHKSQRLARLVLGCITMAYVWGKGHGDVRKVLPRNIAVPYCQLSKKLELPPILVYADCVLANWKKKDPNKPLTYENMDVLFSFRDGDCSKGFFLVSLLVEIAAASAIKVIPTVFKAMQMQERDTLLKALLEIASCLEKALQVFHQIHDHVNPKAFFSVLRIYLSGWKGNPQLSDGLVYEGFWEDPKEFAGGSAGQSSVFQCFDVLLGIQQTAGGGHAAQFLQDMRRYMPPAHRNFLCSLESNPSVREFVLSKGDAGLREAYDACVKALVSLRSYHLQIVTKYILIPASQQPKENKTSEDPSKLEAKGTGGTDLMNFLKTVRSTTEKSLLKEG
Sequence of Recombinant human IDO (P14902 whole entry): as above

A172 Kynurenine cell based assay pIC50 [1] | SKOV3 Kynurenine cell based assay pIC50 [2] | hIDO biocehmical assay pIC50 [3] | Structure (SMILES)
+ (+ = pIC50 4.00-4.99) | + (+ = pIC50 4.00-4.99) | +− (+− = pIC50 <4.00) | CC(=O)N1CC=C(c2c[nH]c3ccc(OCc4ccccc4)cc23)CC1 [Compound 155]
+ (+ = pIC50 4.00-4.99) | + (+ = pIC50 4.00-4.99) | +− (+− = pIC50 <4.00) | COc1ccc2[nH]cc(C3CCN(S(=O)(=O)c4ccc(C(F)(F)F)cc4Cl)CC3)c2c1 [Compound 43]
+ (+ = pIC50 4.00-4.99) | + (+ = pIC50 4.00-4.99) | +− (+− = pIC50 <4.00) | CCc1cc(Br)ccc1S(=O)(=O)N1CCC(c2c[nH]c3ccc(C)cc23)CC1 [Compound 50]
+ (+ = pIC50 4.00-4.99) | +− (+− = pIC50 <4.00) | +− (+− = pIC50 <4.00) | Cc1cccc2c(C3CCN(S(=O)(=O)c4cc(F)c(F)cc4Cl)CC3)c[nH]c12 [Compound 38]
+ (+ = pIC50 4.00-4.99) | + (+ = pIC50 4.00-4.99) | +− (+− = pIC50 <4.00) | COc1ccc2[nH]cc(C3CCN(S(=O)(=O)c4cccc(OC(F)(F)F)c4)CC3)c2c1 [Compound 53]
+ (+ = pIC50 4.00-4.99) | +− (+− = pIC50 <4.00) | +− (+− = pIC50 <4.00) | CN1CCN(c2c[nH]c3ccccc23)CC1=O [Compound 189]
++ (++ = pIC50 5.00-5.99) | + (+ = pIC50 4.00-4.99) | +− (+− = pIC50 <4.00) | Cc1nc(N2CCC(c3c[nH]c4cc(F)ccc34)CC2)no1 [Compound 184]
+− (+− = pIC50 <4.00) | + (+ = pIC50 4.00-4.99) | +− (+− = pIC50 <4.00) | Cc1[nH]c2ccccc2c1C1CCN(S(C)(=O)=O)CC1 [Compound 161]
+ (+ = pIC50 4.00-4.99) | + (+ = pIC50 4.00-4.99) | +− (+− = pIC50 <4.00) | COc1cccc2[nH]cc(C3=CCN(C(C)=O)CC3)c12 [Compound 169]
+ (+ = pIC50 4.00-4.99) | ++ (++ = pIC50 5.00-5.99) | +− (+− = pIC50 <4.00) | Fc1ccc2c(C3CCN(c4ncccn4)CC3)c[nH]c2c1 [Compound 180]
+ (+ = pIC50 4.00-4.99) | + (+ = pIC50 4.00-4.99) | +− (+− = pIC50 <4.00) | O=S(=O)(c1ccccc1OC(F)(F)F)N1CCC(c2c[nH]c3ccc(F)cc23)CC1 [Compound 51]
+ (+ = pIC50 4.00-4.99) | + (+ = pIC50 4.00-4.99) | +− (+− = pIC50 <4.00) | CC(=O)N1CC=C(c2c[nH]c3cccnc23)CC1 [Compound 157]
++ (++ = pIC50 5.00-5.99) | +− (+− = pIC50 <4.00) | +− (+− = pIC50 <4.00) | CS(=O)(=O)N1CC=C(c2c[nH]c3cnccc23)CC1 [Compound 171]
++ (++ = pIC50 5.00-5.99) | + (+ = pIC50 4.00-4.99) | +− (+− = pIC50 <4.00) | CS(=O)(=O)N1CC=C(c2c[nH]c3ccncc23)CC1 [Compound 170]
+ (+ = pIC50 4.00-4.99) | + (+ = pIC50 4.00-4.99) | +− (+− = pIC50 <4.00) | CC(=O)N1CC=C(c2c[nH]c3ccncc23)CC1 [Compound 172]
+− (+− = pIC50 <4.00) | + (+ = pIC50 4.00-4.99) | +− (+− = pIC50 <4.00) | Cc1[nH]c2ccccc2c1C1=CCN(S(C)(=O)=O)CC1 [Compound 160]
+− (+− = pIC50 <4.00) | + (+ = pIC50 4.00-4.99) | +− (+− = pIC50 <4.00) | CC(=O)Nc1ccc(S(=O)(=O)N2CCC(c3c[nH]c4ccccc34)CC2)cc1Cl [Compound 52]
+ (+ = pIC50 4.00-4.99) | +− (+− = pIC50 <4.00) | +− (+− = pIC50 <4.00) | CS(=O)(=O)N1CCN(c2c[nH]c3ccccc23)CC1 [Compound 108]
+ (+ = pIC50 4.00-4.99) | +− (+− = pIC50 <4.00) | +− (+− = pIC50 <4.00) | CC(=O)N1CCN(c2c[nH]c3ccccc23)CC1 [Compound 107]
+ (+ = pIC50 4.00-4.99) | + (+ = pIC50 4.00-4.99) | +− (+− = pIC50 <4.00) | Cc1cc(S(=O)(=O)N2CCC(c3c[nH]c4ccc(F)cc34)CC2)c(Cl)cc1Cl [Compound 39]
+ (+ = pIC50 4.00-4.99) | + (+ = pIC50 4.00-4.99) | +− (+− = pIC50 <4.00) | CCCc1ccc(S(=O)(=O)N2CCC(c3c[nH]c4c(C)cccc34)CC2)cc1 [Compound 48]
++ (++ = pIC50 5.00-5.99) | + (+ = pIC50 4.00-4.99) | +− (+− = pIC50 <4.00) | Cc1noc(N2CCC(c3c[nH]c4cc(F)ccc34)CC2)n1 [Compound 183]
++ (++ = pIC50 5.00-5.99) | +− (+− = pIC50 <4.00) | +− (+− = pIC50 <4.00) | CC(=O)N1CCCC(c2c[nH]c3cc(F)ccc23)CC1 (stereo not drawn) [Compound 181]
+ (+ = pIC50 4.00-4.99) | +− (+− = pIC50 <4.00) | +− (+− = pIC50 <4.00) | Cc1cccc2c(C3CCN(S(=O)(=O)c4cccc(C(F)(F)F)c4)CC3)c[nH]c12 [Compound 46]
+ (+ = pIC50 4.00-4.99) | ++ (++ = pIC50 5.00-5.99) | + (+ = pIC50 4.00-4.99) | Cn1cccc1C(=O)N1CCC(c2c[nH]c3cc(F)ccc23)CC1 [Compound 278]
+ (+ = pIC50 4.00-4.99) | +− (+− = pIC50 <4.00) | +− (+− = pIC50 <4.00) | Cc1cccc2c(C3CCN(S(=O)(=O)c4ccc(C(C)(C)C)cc4)CC3)c[nH]c12 [Compound 40]
++ (++ = pIC50 5.00-5.99) | + (+ = pIC50 4.00-4.99) |  | O=S(=O)(N1CCC(c2c[nH]c3cc(F)ccc23)CC1)C(F)(F)F [Compound 296]
+ (+ = pIC50 4.00-4.99) | + (+ = pIC50 4.00-4.99) |  | CC(=O)N1CCC(c2c[nH]c3ccc(OCc4ccccc4)cc23)CC1 [Compound 208]
+ (+ = pIC50 4.00-4.99) | + (+ = pIC50 4.00-4.99) |  | O=C(N1CCC(c2c[nH]c3cc(F)ccc23)CC1)C1(c2ccccc2)CC1 [Compound 281]
